From ChEMBL document CHEMBL1201862, “PubChem BioAssay data set” (2004)
The source made the active and inactive calls.

Columns and labels:
[1] = target: 1-phosphatidylinositol 4,5-bisphosphate phosphodiesterase gamma-1 (Homo sapiens, UniProt P19174); experiment: Counterscreen for inhibitors of phospholipase C isozymes (PLC-B3): Fluorescence-based biochemical high throughput dose response assay to identify inhibitors of phospholipase C isozymes (PLC-gamma1).
[2] = target: 1-phosphatidylinositol 4,5-bisphosphate phosphodiesterase beta-3 (Homo sapiens, UniProt Q01970); experiment: Fluorescence-based biochemical high throughput dose response assay to identify inhibitors of phospholipase C isozymes (PLC-B3).
[3] = system: HeLa; experiment: HeLa cell cytotoxicity, dose response, cytotoxicity control, ATP luminescence, cherry-pick samples (AID 687004); type: functional, cell-based; conditions: Homo sapiens
[4] = target: Major prion protein (Homo sapiens, UniProt P04156); type: functional, cell-based
[5] = cells
[6] = target: T1, Rac GTPase-activating protein 1 (Homo sapiens, UniProt Q9H0H5); experiment: MgcRacGAP GTPase-activating activity inhibitors, confirmation, biochemical, ADP Hunter fluorescence, primary and confirmatory (AID 624330); type: functional
T1 sequence (Q9H0H5 whole entry): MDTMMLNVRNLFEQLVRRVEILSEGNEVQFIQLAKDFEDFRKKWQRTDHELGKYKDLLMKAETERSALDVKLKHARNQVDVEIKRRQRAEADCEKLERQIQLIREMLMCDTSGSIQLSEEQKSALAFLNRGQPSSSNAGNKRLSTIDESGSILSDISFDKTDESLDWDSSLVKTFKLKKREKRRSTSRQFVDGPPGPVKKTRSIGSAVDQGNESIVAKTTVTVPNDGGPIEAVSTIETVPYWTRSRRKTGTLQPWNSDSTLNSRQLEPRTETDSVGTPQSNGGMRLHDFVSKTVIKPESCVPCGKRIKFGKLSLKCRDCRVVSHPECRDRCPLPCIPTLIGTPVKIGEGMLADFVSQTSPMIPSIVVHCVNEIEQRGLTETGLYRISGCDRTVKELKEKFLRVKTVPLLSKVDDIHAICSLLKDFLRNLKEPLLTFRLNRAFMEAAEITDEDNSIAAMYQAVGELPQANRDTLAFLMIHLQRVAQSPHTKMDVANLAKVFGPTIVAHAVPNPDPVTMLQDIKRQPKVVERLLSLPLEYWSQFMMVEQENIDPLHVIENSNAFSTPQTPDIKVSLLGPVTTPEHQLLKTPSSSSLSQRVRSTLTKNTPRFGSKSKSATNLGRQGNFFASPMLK

[7] = inhibitors of HIV Env-driven cell fusion, dose response, cherry-pick (AID 652057); type: functional, cell-based
[8] = ZM109 Env clade C HIV-1 fusion inhibitors, dose response, HeLa effector, CEM target cells, luciferase, cherry-pick (AID 652058); type: functional, cell-based
[9] = inhibitors of clade B AD8 Env fusion, dose response, cell-based, cherry-pick (AID 652062); type: functional;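 note: luciferase signal from cell-cell fusion driven by HIV-1 clade B AD8 Env; potency is for inhibitors of fusion seen as a drop in luminescence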
[10] = P. falciparum Dd2 growth inhibitors, dose response, SYBR Green, cherry-picked samples (AID 1159567); type: functional, cell-based
[11] = HepG2 cell cytotoxicity, dose response, cytotoxicity control, cherry-picked samples (AID 1159577); type: functional, cell-based
[12] = Concentration-dependent survival of SW480 colon cancer line, luminescence detection with CellTiter-Glo, half-maximal inhibitory concentration (AID 1117338); type: functional
[13] = RKO cell viability reduction, dose response, CellTiter-Glo luminescence (AID 1117322); type: functional
[14] = cytotoxicity toward HCT116 cells – cell-based, CellTiter-Glo luminescence, IC50, dose response (AID 1117332); type: functional; conditions: HCT-116
[15] = SNU-C1 cell viability reduction, dose response, CellTiter-Glo luminescence (AID 1117323); type: functional, cell-based
[16] = cytotoxicity toward Colo320 cells – cell-based, CellTiter-Glo luminescence, IC50, dose response (AID 1117334); type: functional; conditions: COLO 320
[17] = cytotoxicity toward HT-29 cells – cell-based, CellTiter-Glo luminescence, IC50, dose response (AID 1117330); type: functional
[18] = CellTiter-Glo luminescent dose response of DLD-1 viability loss (AID 1117352); type: functional
[19] = HCT116 cell viability decrease, GSK3B pretreatment – CellTiter-Glo, IC50, dose response (AID 1117339); type: functional; conditions: HCT-116
[20] = P. falciparum 3D7-ScDHODH growth inhibitors, dose response, SYBR Green, dry powder samples (AID 1159570); type: functional, cell-based;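 note: parasite growth measured after 72 hours of compound exposure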
[21] = HepG2 cell cytotoxicity, dose response, cytotoxicity control, plate reader, dry powder samples (AID 1159569); type: functional, cell-based;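 note: inhibitor potency with signal falling toward the positive control level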
[22] = P. falciparum Dd2 growth inhibitors, dose response, SYBR Green, dry powder samples (AID 1159566); type: functional, cell-based;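 note: potency for growth inhibition with lower SYBR green DNA signal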
[23] = P. falciparum ATP4 D1247Y mutant growth inhibitors, dose response, NITD609-resistant line, SYBR Green, dry powder (AID 1159571); type: functional, cell-based;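 note: parasites synchronized at ring stage by sorbitol before testing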
[24] = target: SWI/SNF-related matrix-associated actin-dependent regulator of chromatin subfamily A member 2 (Homo sapiens, UniProt P51531); experiment: Luminescence-based cell-based high throughput dose response assay to identify activators of the function of SWI/SNF related, matrix associated, actin dependent regulator of chromatin, subfamily a, member 2 (SMARCA2, BRM).; type: functional
[25] = Counterscreen for activators of the function of SWI/SNF related, matrix associated, actin dependent regulator of chromatin, subfamily a, member 2 (SMARCA2, BRM): Luminescence-based cell-based high throughput dose response assay to identify non-selective compounds using the VP16 reporter assay.; type: functional
[26] = target: T2, RNA-binding protein pos-1 (Caenorhabditis elegans, UniProt G5EF15); experiment: inhibitors of POS-1/mex-3 RNA binding, dose response, biochemical, fluorescence polarization (AID 1964);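 note: purified POS-1 fused to maltose binding protein made in E. coli; potency of compounds blocking POS-1 binding to fluorescent RNA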
T2 sequence (G5EF15 whole entry): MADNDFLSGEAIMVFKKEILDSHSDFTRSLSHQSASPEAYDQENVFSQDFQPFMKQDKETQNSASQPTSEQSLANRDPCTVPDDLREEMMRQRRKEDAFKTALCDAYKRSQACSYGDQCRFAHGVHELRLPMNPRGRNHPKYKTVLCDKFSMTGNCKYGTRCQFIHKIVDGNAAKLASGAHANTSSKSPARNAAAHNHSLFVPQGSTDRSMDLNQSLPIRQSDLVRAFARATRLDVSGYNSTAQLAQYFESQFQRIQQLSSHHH

[27] = target: T3, Zinc finger protein mex-5 (Caenorhabditis elegans, UniProt Q9XUB2); experiment: MEX-5/TCR-2 RNA interaction inhibitors, dose response, biochemical, C. elegans, fluorescence polarization (AID 1960)
T3 sequence (Q9XUB2 whole entry): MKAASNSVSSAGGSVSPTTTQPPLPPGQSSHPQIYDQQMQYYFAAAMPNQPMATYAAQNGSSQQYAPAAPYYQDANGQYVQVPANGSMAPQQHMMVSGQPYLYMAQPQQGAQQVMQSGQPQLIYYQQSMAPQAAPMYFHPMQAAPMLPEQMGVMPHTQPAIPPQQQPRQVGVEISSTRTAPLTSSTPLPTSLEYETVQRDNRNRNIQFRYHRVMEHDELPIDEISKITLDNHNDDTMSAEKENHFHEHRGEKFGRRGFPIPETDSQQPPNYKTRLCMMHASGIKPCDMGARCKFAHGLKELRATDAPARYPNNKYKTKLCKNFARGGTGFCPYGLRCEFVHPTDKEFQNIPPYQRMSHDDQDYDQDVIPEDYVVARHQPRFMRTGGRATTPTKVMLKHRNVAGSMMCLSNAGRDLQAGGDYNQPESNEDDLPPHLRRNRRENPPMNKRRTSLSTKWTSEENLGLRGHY

[28] = target: NAD-dependent protein deacylase sirtuin-5, mitochondrial (Homo sapiens, UniProt Q9NXA8); experiment: SIRT5 deacylase inhibitors, dose response, biochemical, fluorescence imaging, cherry-pick, set 6 (AID 720597)
[29] = cells; type: functional, cell-based
[30] = target: T4, Nuclear receptor subfamily 0 group B member 1 (Homo sapiens, UniProt P51843); type: functional, cell-based;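 note: HEK293T cells transfected with SF-1 and DAX-1 plus StAR promoter luciferase reporter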
T4 sequence (P51843 whole entry): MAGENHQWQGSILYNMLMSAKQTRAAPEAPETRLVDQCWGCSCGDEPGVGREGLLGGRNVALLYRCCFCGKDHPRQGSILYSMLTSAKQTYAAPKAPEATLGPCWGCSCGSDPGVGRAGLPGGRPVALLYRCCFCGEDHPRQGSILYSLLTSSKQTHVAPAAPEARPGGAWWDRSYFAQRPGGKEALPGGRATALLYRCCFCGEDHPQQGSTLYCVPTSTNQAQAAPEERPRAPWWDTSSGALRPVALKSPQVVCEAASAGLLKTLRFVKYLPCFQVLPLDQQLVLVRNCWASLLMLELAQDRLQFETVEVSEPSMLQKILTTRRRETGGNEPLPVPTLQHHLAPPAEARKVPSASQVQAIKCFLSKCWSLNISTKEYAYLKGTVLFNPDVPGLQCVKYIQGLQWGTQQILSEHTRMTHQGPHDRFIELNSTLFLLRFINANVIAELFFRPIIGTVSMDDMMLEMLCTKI

[31] = target: Paired box protein Pax-8 (Homo sapiens, UniProt Q06710); experiment: inhibitors of PAX8-driven TPO luciferase reporter, dose response, RMG-I cells, cherry-pick (AID 687027); type: functional, cell-based;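 note: luciferase reporter driven by Pax8 target thyroperoxidase promoter measured by SteadyGlo luminescence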

## CC(C)(C)C1CCC(C(=O)Nc2ccccc2)CC1 (configuration not stated)
[1]
  IC50: > 122 µM (inactive)
[2]
  IC50: > 122 µM (inactive)

## C[C@@H]1CN([C@@H](C)CO)C(=O)c2cccc(NS(C)(=O)=O)c2O[C@@H]1CN(C)C(=O)Nc1ccc2c(c1)OCO2
[3]
  AC50: 21.1 µM (active)

## N=C(N)NS(=O)(=O)c1ccc(NC(=S)NC(=O)c2ccc3c(c2)OCO3)cc1
[4]
  IC50: 15.1 µM (inactive)
[5]
  IC50: > 138 µM (inactive)

## CC(C)c1nc(SCC(=O)Nc2ccc(N(C)C)cc2)c2ccccc2n1
[6]
  IC50: 196 µM (active)
[4]
  IC50: 2.94 µM (active)
[5]
  IC50: 58.2 µM (inactive)

## C[C@@H]1CN([C@@H](C)CO)C(=O)Cc2cc(NC(=O)Nc3ccc4c(c3)OCO4)ccc2O[C@H]1CN(C)Cc1ccc(Cl)c(Cl)c1
[7]
  AC50: 23.5 µM (active)
[8]
  AC50: 21.8 µM (active)
[9]
  AC50: 25 µM (active)
[10]
  AC50: 5.32 µM (active)
[11]
  AC50: > 39 µM (inactive)

## COc1ccc(CN2CCN(C(c3ccc(F)cc3)c3ccc(F)cc3)CC2)c(OC)c1OC
[12]
  IC50: 3.32 µM (active)
[13]
  IC50: 3.7 µM (active)
[14]
  IC50: 1.7 µM (active)
[15]
  IC50: 0.443 µM (active)
[16]
  IC50: 2.82 µM (active)
[17]
  IC50: 2.93 µM (active)
[18]
  IC50: 3.13 µM (active)
[19]
  IC50: 2.77 µM (active)

## COc1ccc(-c2ccc([C@H]3[C@@H]4CN(S(=O)(=O)c5cccc(C)c5)C[C@H]3N4)cc2)cc1
[20]
  AC50: 1.48 µM (active)
[21]
  AC50: 20.8 µM (active)
[10]
  AC50: 1.99 µM (active)
[22]
  AC50: 2 µM (active)
[11]
  AC50: > 39 µM (inactive)
[23]
  AC50: 1.86 µM (active)

## O=Cc1ccc2noc(-c3ccc(Cl)cc3)c2c1
[24]
  EC50: > 91.1 µM (inactive)
[25]
  EC50: > 91.2 µM (inactive)

## CCCCNC(=O)c1cc2c(=O)n3cccc(C)c3nc2n(Cc2ccncc2)c1=N
[26]
  EC50: 24.3 µM (inconclusive)
[27]
  EC50: 39.6 µM (inconclusive)
[24]
  EC50: > 91.1 µM (inactive)
[25]
  EC50: > 91.1 µM (inactive)

## CCCC#Cc1ccc2c(c1)O[C@@H](CN(C)C(=O)Nc1ccccc1F)[C@H](C)CN([C@H](C)CO)S2(=O)=O
[28]
  AC50: > 30 µM (inactive)

## COc1ccc(OC)c(-c2nnc3n2N=C(c2ccc(OC)c(OC4CCOC4)c2)CS3)c1 (configuration not stated)
[29]
  IC50: > 67.5 µM (inactive)
[30]
  IC50: > 67.5 µM (inactive)
[31]
  AC50: 2.71 µM (active)
